We go through one molecule from patent US20230312639A1, “GPER PROTEOLYTIC TARGETING CHIMERAS” (University of Iowa Research Foundation, priority 2020, published 2023).

The test system of test [1] is ERs (ERa and ERb). The experiment in a line: Fluorescence polarization competitive binding with E2-FITC in cytosolic fractions from MCF-7 cells. The arrangement: species or system human. The method, then:
ER binding was measured using cytosolic fractions prepared from MCF-7 cells by fluorescence polarization. MCF-7 (10^6 cells) were detached in EDTA, cell homogenates were prepared using a Dounce homogenizer and subcellular fractions were isolated by differential centrifugation as previously described (Filardo et al, 2002). The protein concentration of each fraction was determined by bichinchoninic acid (BCA) assay (Pierce ™ BCA protein assay kit, Thermo Fisher). For saturation binding assay of the probe, different concentrations of cytosolic fraction were diluted in assay buffer (10 mM Tris-HCl, pH 7.4; 50 mM KCl, 10% glycerol, 0.1 mM dithiothreitol (DTT), 1 ug/mL BGG, 10 nM protease inhibitor cocktail (Roche) to a final volume of 200 uL containing 10 nM Ez-FITC. The mixture was incubated at ambient temperature for 1 hour and interaction of the probe with cytosolic protein was determined by fluorescence polarization (FP). For competitive binding assay, an aliquot of cytosolic fraction and E2-FITC (10 nM final concentration) was mixed and incubated at 4° C. for 1 hour. Then different concentrations of drugs and controls were added to the mixture. The mixture was incubated for an additional hour and then subjected to FP. All samples were measured in triplicate. Negative controls (only cytosolic fraction or only E2-FITC) and positive control (E2-FITC and cytosolic fraction at 100% binding without treatment) were included. Relative binding affinities were expressed as the percentage of FP recorded from treated wells compared to the positive control. FP values in millipolarization units (mP) were measured at ex/em wavelength of 485 nm/530 nm respectively using the Spectra Max plus 384 Microplate Spectrophotometer (Molecular Devices, Sunnyvale, CA) in 96-well, black, flat-bottom microplates (Greiner Bio-One North America, Inc., Monroe, NC). Kd values of the probe were determined by nonlinear regression fitting of the saturation curves, while IC50 values of treatment were determined by nonlinear regression fitting of the competition curves.
In contrast to GPER, ERa and ERb are intracellular receptors that are concentrated in the cytoplasm and in the nucleus. […] A saturation analysis was performed using 10 nM E2-FITC and increasing concentrations of cytosolic protein (FIG. 25D).
In general terms: In fluorescence polarisation assays a small probe gives low polarisation when free and higher when bound to something large.

Test [2] addresses HiBiT-GPER (Homo sapiens, UniProt Q99527). The experiment in a line: Nano-BiT binary luminescence complementation, transfected HEK-293 cells, total receptor. It counts as cell-based. The method, then:
FIG. 26. […] HEK-293 cells (ERα^-, GPER^-) were transiently transfected with 50 ng HiBiT-GPER or HiBiT-ER plus pcDNA3.1(+) zeo carrier plasmid. […] (C) Histogram depicting total HiBiT-GPER and HiBiT-ER following a 1-hour treatment at […] drug or control. […] Results shown represent the mean ± S.E. of three independent experiments.
FIG. 28. […] Total receptor was then measured by binary luminescence complementation in detergent-permeabilized cells. […] Total receptor was then quantified by binary luminescence complementation. Representative luminescence data and mean values and SDs derived from three independent experiments are shown.
Transient transfections and binary Nano-Bit ™ luminescence assays. Total HiBiT-tagged GPER or ER estrogen receptors were detected in detergent-permeabilized cells by binary luminescence complementation with recombinant LgBit and substrate using the Nano-Glo HiBiT Extracellular Detection system kit (Promega Corporation, Madison, Wl). In brief, HEK293 cells (0.75 × 10^6) were seeded in 35 mm tissue culture dishes and 24 hours later were transiently transfected with 50 ng of HiBiT-GPER or HiBiT-ERa and 950 ng of pcDNA3.1(+) zeo carrier plasmid using Lipofectamine 2000 (Invitrogen, Carlsbad, CA). The next day transfected cells were harvested by trypsinization and seeded at a density of 10^4 cells/well in 96-well poly-L-lysine-coated Greiner white-bottomed microplates. On the following day, cell culture media was aspirated and replaced with 100 µL of serum-free PRF-DF12 containing E2-PROTAC, partial-PROTAC, or vehicle at various concentrations and for indicated time intervals at 37° C. […] Following treatment, total HiBiT-tagged receptor was measured in cells which were permeabilized in 0.05% Triton X-100 using HiBiT complementation reagent consisting of LgBiT protein and Nano-Gio® HiBiT substrate. Luminescence was measured using the Infinite 200 PRO multimode microplate reader from Tecan (Raleigh, NC) and reported as Relative Luminescent Units (RLU). All samples were measured in triplicate and expressed as the mean value plus or minus standard deviation.

The target of test [3] is GPER (Homo sapiens, UniProt Q99527). Description: Competitive binding assay in intact SKBR3 cells with E2-FITC as fluoro-tracer (flow cytometry). The arrangement: endogenous in cells; host or cells: SKBR3 human breast carcinoma cells (ATCC).
Sequence of GPER (Q99527 whole entry): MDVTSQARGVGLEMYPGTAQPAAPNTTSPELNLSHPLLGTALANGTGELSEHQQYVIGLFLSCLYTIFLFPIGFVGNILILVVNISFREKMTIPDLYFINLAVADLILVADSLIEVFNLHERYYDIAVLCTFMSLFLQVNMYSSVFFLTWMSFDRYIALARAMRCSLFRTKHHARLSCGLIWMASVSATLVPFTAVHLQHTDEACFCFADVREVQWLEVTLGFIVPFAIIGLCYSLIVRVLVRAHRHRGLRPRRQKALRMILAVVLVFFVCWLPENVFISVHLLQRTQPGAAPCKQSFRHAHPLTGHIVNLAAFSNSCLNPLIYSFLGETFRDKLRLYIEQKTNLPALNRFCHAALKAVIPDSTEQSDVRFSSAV
The mark [4] stands for this setting: IC50 of 17β-E2 divided by IC50 of test compound.

Sequence of HiBiT-GPER (Q99527 whole entry): as above

For orientation: IC50 means the concentration needed to halve the response being measured. Read a low IC50 as greater potency. By Kd is commonly meant the free concentration of one partner at which half of the binding sites on the other are occupied at equilibrium, for simple one-to-one binding. As for `Cc1ncsc1-c1ccc(CNC(=O)C2CC(O)CN2C(=O)C(NC(=O)COCCOCCOCCOCC(=O)OC2CCC3C4CCc5cc(O)ccc5C4CCC23C)C(C)(C)C)cc1` (centres unmarked) [UI-EP001], the “RBA%, ERs” value in test [1] (setting [4]) is recorded as 32%. This molecule also gave an IC50 in test [1] (MCF-7 cytosolic fraction, 10 nM E2-FITC, mean ± SD of triplicates) of 17.2 ± 8.2 nM. The Kd was 17.2 nM in test [1] (MCF-7 cytosolic fractions, E2-FITC, read-out: binding dissociation constant (Kd), ER) and about 30 nM in test [3] (intact SKBR3 cells, E2-FITC, read-out: binding dissociation constant (Kd), GPER). Also, the “reduction in expression level of recombinant GPER” value in test [2] (100 µM, as early as 1 h) is given as 50%. For the same molecule, the DC50 in test [2] (1 hour treatment, detergent-permeabilized cells, read-out: DC50 (concentration required for 50% protein degradation), GPER) turned out to be 100000 nM. Also, the “change of HiBiT-GPER” value in test [2] (increasing doses, 1 hour, partial PROTAC 100 µM) is recorded as “dose-dependent decrease”. Besides, in test [3] (setting [4]), the “RBA%, GPER” value is 330%.
